Reference: publication PMC7168333, “5-(Carbamoylmethylene)-oxazolidin-2-ones as a Promising Class of Heterocycles Inducing Apoptosis Triggered by Increased ROS Levels and Mitochondrial Dysfunction in Breast and Cervical Cancer” (Biomedicines, 2020)
Blank lines part the entries; values can stand above or below the molecule they belong to.

Key:
[1] = tested on: HeLa cells; assay: MTT cell viability assay, HeLa; type: cell-based; conditions: Homo sapiens, 72 h
Protocol: Cell viability was assessed by using 3-(4,5-dimethylthiazol-2-y1)-2,5-diphenyltetrazolium bromide (MTT) assay (Sigma-Aldrich, Milan, Italy), as already reported. In brief, MCF-7 and HeLa cells (2 × 10^4 cells/well) were seeded in a 48-well plate and grown in complete medium overnight, then they were switched into DMEM-F12 supplemented with 2% FBS and treated with increasing concentrations (1, 10, 50, 75, and 100 µM) of different oxazolidin-2-ones derivatives (OA-OI) or doxorubicin for 72 h. Untreated cells were added with the vehicle (DMSO) and used as a control. After treatment, fresh MTT reagent (used at a final concentration of 0.5 mg/mL) was added, prolonging incubation for 2 h according to the manufacturer’s protocol. Absorbance at 570 nm was measured in each well, including controls, and every experiment was carried out in triplicate.
(§1) For each sample, mean absorbance was expressed as a percentage of the control and plotted vs. drug concentration, in order to determine the IC50 value (i.e., drug concentration able to decrease cell viability by 50% with respect to the control) for each cell line, generating a sigmoidal dose–response curve by the use of GraphPad Prism 7 software (GraphPad Inc., San Diego, CA, USA). Mean values and standard deviations (SD) of three independent experiments carried out in triplicate were reported. […]

[2] = tested on: MCF-7 cells; assay: MTT cell viability assay, MCF-7; type: cell-based; conditions: Homo sapiens, MCF7, 72 h
Protocol: Cell viability was assessed by using 3-(4,5-dimethylthiazol-2-y1)-2,5-diphenyltetrazolium bromide (MTT) assay (Sigma-Aldrich, Milan, Italy), as already reported. […] Untreated cells were added with the vehicle (DMSO) and used as a control. After treatment, fresh MTT reagent (used at a final concentration of 0.5 mg/mL) was added, prolonging incubation for 2 h according to the manufacturer’s protocol. Absorbance at 570 nm was measured in each well, including controls, and every experiment was carried out in triplicate.
as §1

[3] = tested on: MCF-10A cells; assay: MTT cell viability assay, MCF-10A; type: cell-based, human; conditions: for IC50: Homo sapiens, MCF-10A, 72 h
[4] = tested on: MCF-7 cells; assay: ROS production (CM-H2DCFDA, FACS), MCF-7; type: cell-based, human; conditions: 24 h
Protocol: (§2) Intracellular level of reactive oxygen species (ROS) was assessed by using CM-H2DCFDA (Invitrogen, Milan, Italy), a cell-permeable fluorogenic probe, which is deacetylated by intracellular esterases and can be oxidized in the presence of intracellular ROS, becoming highly fluorescent. MCF-7 and HeLa cells were seeded into 96-well tissue culture plates at a density of 5 × 10^4 cells/well and treated with 15 and 30 µM OI, respectively, for 24 h. Control cells were added with DMSO and processed at the same time. Then, cells were washed with PBS and stained in the dark with CM-H2DCFDA (diluted in PBS/CM to a final concentration of 1 μM) for 20 min at 37 °C. Next steps were also performed in the dark, in order to avoid probe oxidation. Cells were washed three times with PBS, harvested, re-suspended in PBS/CM, and fluorescence was measured by using Fortessa (BD Bioscience, San Jose, CA, USA). ROS levels were estimated by using mean fluorescent intensity of the viable cell population. Results were analyzed by the use of FlowJo software (Tree Star Inc., Ashland, OR, USA).

[5] = tested on: HeLa cells; assay: Mitochondrial staining (MitoTracker Orange / Deep-Red, FACS), HeLa; type: cell-based, human; conditions: 30 µM, 24 h
Protocol: (§3) Mitochondrial activity was assessed using MitoTracker Orange (Invitrogen, Milan, Italy), a fluorescent dye that enters mitochondria in a membrane potential-dependent way. Mitochondrial mass was determined using MitoTracker Deep-Red (Invitrogen, Milan, Italy), a far red-fluorescent dye that is largely used to label mitochondria. Both MCF-7 and HeLa cells were treated using 15 and 30 µM OI, respectively, for 24 h. Control cells were added with DMSO and simultaneously processed. Then, cells were incubated in the dark for 30–60 min at 37 °C with pre-warmed MitoTracker staining solution (diluted in PBS/CM to reach a final concentration of 10 nM). All the next steps were still carried out in the dark. Cells were rinsed in PBS, harvested, and re-suspended in 300 μL of PBS/CM. Cells were then examined by flow cytometry using Fortessa (BD Bioscience, San Jose, CA, USA). Data analysis was performed using FlowJo software (Tree Star Inc., Ashland, OR, USA).

[6] = tested on: MCF-7 cells; assay: TUNEL assay, MCF-7; type: cell-based, human; conditions: MCF-7, 15 µM, 72 h; control 2.3%
Protocol: (§4) Apoptosis was tested by enzymatic labeling of DNA strand breaks using terminal deoxynucleotidyl transferase-mediated deoxyuridine triphosphate nick end-labeling (TUNEL) assay, following the guidelines of the manufacturer (TUNEL assay kit, Promega, Madison, WI, USA). Briefly, MCF-7 and HeLa cells were added with DMSO or treated with 15 and 30 µM OI, respectively, for 72 h. MCF-10A were added to DMSO or treated using 30 µM OI, for 72 h. Next, nuclear staining was achieved using 0.2 mg/mL 4′,6- diamidino-2-phenylindole (DAPI, Sigma-Aldrich, Milan, Italy) and samples were examined using a fluorescent microscope (Olympus BX4 equipped with CSV1.14 software employing a CAMXC-30 for image acquisition). Images were representative of three independent experiments.

[7] = tested on: cytochrome c in HeLa cells; assay: Western blot of cytochrome c in cytosolic and mitochondrial fractions, HeLa; type: cell-based, human; conditions: 30 µM, 24 h, vs control
Protocol: (§5) Both MCF-7 and HeLa cells were cultured in 100 mm dishes (1 × 10^7 cells/dish), added with the vehicle alone (DMSO) or treated for 24 h with 15 and 30 µM OI, respectively. Then, mitochondria extraction was performed as previously described. In brief, cells were harvested, resuspended in isolation buffer for cells (IBC, containing 200 mM sucrose, 10 mM Tris/MOPS, 1 mM EDTA/Tris, pH 7.4), and homogenized by a glass potter homogenizer. Nuclei and unbroken cells were removed by centrifugation (600× g for 10 min). Supernatants were centrifuged for 30 min at 10,000× g, obtaining upper cytosolic fractions and mitochondrial pellets; the latter were resuspended in RIPA buffer (PBS pH 7.4, 1% NP-40, 0.5% sodium deoxycholate, and 0.1% sodium dodecyl sulfate) containing a protease and phosphatase inhibitor cocktail (Sigma-Aldrich, Milan, Italy). Protein concentration was determined using Bio-Rad Protein Assay (Bio-Rad Laboratories, Hercules, CA, USA) and Western blotting was performed as next described.
(§6) Western blot analysis was conducted basically as previously reported. In detail, MCF-7 and HeLa cells were grown to 70–80% confluence, added to DMSO, or treated with 15 and 30 µM OI, respectively, for 24 h. In order to obtain total cell lysates, harvested cells were lysed using 200 μL of lysis buffer as previously reported. Cytosolic and mitochondrial fractions were isolated as already described. […]

[8] = tested on: cytochrome c in MCF-7 cells; assay: Western blot of cytochrome c in cytosolic and mitochondrial fractions, MCF-7; type: cell-based, human; conditions: MCF-7, 15 µM, 24 h, vs control
Protocol: as §5, §6

[9] = tested on: HeLa cells; assay: TUNEL assay, HeLa; type: cell-based, human; conditions: 30 µM, 72 h, control 10%
Protocol: as §4

[10] = tested on: HeLa cells; assay: Cell cycle analysis (PI staining, flow cytometry), HeLa; type: cell-based, human; conditions: 30 µM, 24 h
Protocol: (§7) In order to assess cell cycle analysis, MCF-7 and HeLa cells were seeded in 6-well plates, at a density of 2.5 × 10^5 cells/well, then they were added to DMSO or treated using 15 and 30 µM OI, respectively, for 24 h. MCF-10A were seeded as described before, then they were added to DMSO or treated using 30 µM OI, the highest concentration used for cancer cells, for 24 h. Next, cells were harvested by trypsinization, rinsed twice with cold PBS, and pelleted by centrifugation at 1500 rpm for 5 min. Pellets were re-suspended in 70% ice-cold ethanol for 30 min at 4 °C to perform cell fixation. Then, samples were rinsed twice with PBS and stained using a solution containing 3.8 mM sodium citrate (Sigma-Aldrich, Milan, Italy), 100 μg/mL RNAse (Sigma-Aldrich, Milan, Italy), 50 μg/mL propidium iodide (PI, Sigma-Aldrich, Milan, Italy), and 0.1% Igepal (Sigma-Aldrich, Milan, Italy) in PBS for 1 h at 37 °C. Subsequent cytofluorimetric analysis was achieved by BD FACSJazz™ Cell Sorter (Becton Dickinson, Franklin Lakes, NJ, USA).

[11] = tested on: procaspases -8 and -9 in HeLa cells; assay: Western blot of procaspases -8 and -9, HeLa; type: cell-based, human; conditions: 30 µM, 24 and 72 h
Protocol: (§8) Western blot analysis was conducted basically as previously reported. […] In order to obtain total cell lysates, harvested cells were lysed using 200 μL of lysis buffer as previously reported. Cytosolic and mitochondrial fractions were isolated as already described. Identical amounts of proteins from total lysate, mitochondrial, or cytosolic fraction were resolved on SDS-polyacrylamide gel, blotted to nitrocellulose membrane, and probed with proper primary antibodies (Santa Cruz Biotechnology, Dallas, TX, USA). Immunoreactive products were identified by using ECL Western blotting detection system (Bio-Rad Laboratories, Hercules, CA, USA).

[12] = tested on: MCF-10A cells; assay: Cell cycle analysis (PI staining, flow cytometry), MCF-10A; type: cell-based, human; conditions: 30 µM, 24 h
Protocol: as §7

[13] = tested on: MCF-7 cells; assay: Mitochondrial staining (MitoTracker Orange / Deep-Red, FACS), MCF-7; type: cell-based, human; conditions: MCF-7, 15 µM, 24 h
Protocol: as §3

[14] = tested on: HeLa cells; assay: ROS production (CM-H2DCFDA, FACS), HeLa; type: cell-based, human; conditions: 24 h
Protocol: as §2

[15] = tested on: MCF-7 cells; assay: Cell cycle analysis (PI staining, flow cytometry), MCF-7; type: cell-based, human; conditions: MCF-7, 15 µM, 24 h
Protocol: as §7

[16] = tested on: MCF-10A cells; assay: TUNEL assay, MCF-10A; type: cell-based, human; conditions: 30 µM, 72 h
Protocol: as §4

[17] = tested on: procaspases -8 and -9 in MCF-7 cells; assay: Western blot of procaspases -8 and -9, MCF-7; type: cell-based, human; conditions: MCF-7, 15 µM, 24 and 72 h
Protocol: as §8

[18] = tested on: cyclin D1, CDK4, phosphorylated Rb in MCF-7 cells; assay: Western blot of cell cycle regulators, MCF-7; type: cell-based, human; conditions: MCF-7, 15 µM, 24 and 72 h
Protocol: as §8

SMILES: CCN(CC)C(=O)/C=C1\OC(=O)N(Cc2ccccc2)C1(C)C [OC]
IC50 [1]: 99.5 µM | IC50 [2]: 163 µM | IC50 [3]: 494 µM

SMILES: CCCCN1C(=O)O/C(=C/C(=O)N2CCOCC2)C12CCCCC2 [OD]
IC50 [1]: 154 µM | IC50 [2]: 338 µM | IC50 [3]: 506 µM

SMILES: CCCCN1C(=O)O/C(=C\C(=O)N2CCOCC2)C12CCCCC2 [OE]
IC50 [1]: 129 µM | IC50 [2]: 304 µM | IC50 [3]: 978 µM

SMILES: CC1(C)/C(=C\C(=O)N2CCOCC2)OC(=O)N1Cc1ccccc1 [OF]
IC50 [1]: 159 µM | IC50 [2]: 409 µM | IC50 [3]: 718 µM

SMILES: CC1(C)/C(=C/C(=O)N2CCOCC2)OC(=O)N1Cc1ccccc1 [OG]
IC50 [1]: 134 µM | IC50 [2]: 345 µM | IC50 [3]: 677 µM

Continued, in another order:

IC50 [1]: 3.61 µM | IC50 [2]: 4.04 µM
SMILES: COc1cccc2c1C(=O)c1c(O)c3c(c(O)c1C2=O)C[C@@](O)(C(=O)CO)C[C@@H]3O[C@H]1C[C@H](N)[C@H](O)[C@H](C)O1 [DOX, doxorubicin, reference compound]
IC50 [3]: 31.8 µM

IC50 [1]: 52.5 µM | IC50 [2]: 56.9 µM
SMILES: CC1(C)/C(=C\C(=O)N2CCCCC2)OC(=O)N1Cc1ccccc1 [OA]
IC50 [3]: 414 µM

IC50 [1]: 98.2 µM | IC50 [2]: 122 µM
SMILES: CC1(C)/C(=C/C(=O)N2CCCCC2)OC(=O)N1Cc1ccccc1 [OB]
IC50 [3]: 470 µM

IC50 [1]: 54.2 µM | IC50 [2]: 92.9 µM
SMILES: CCCCN1C(=O)O/C(=C/C(=O)N2CCOCC2)C1(C)CC (stereo not drawn) [OH]
IC50 [3]: 319 µM

IC50 [1]: 31.1 µM | IC50 [2]: 17.7 µM
SMILES: CCN(CC)C(=O)/C=C1/OC(=O)N(Cc2ccccc2)C1(C)C [OI, (E)-2-(3-benzyl-4,4-dimethyl-2-oxooxazolidin-5-ylidene)-N,N-diethylacetamide]
ROS increase in the presence of NAC ([4]; MCF-7, 15 µM OI + NAC): no longer evident | ROS generation ([4]; MCF-7, 15 µM, vs control): significantly stimulated | mitochondrial mass (MitoTracker Deep-Red) [5]: decrease | mitochondrial membrane potential (MitoTracker Orange) [5]: decrease | mitochondrial membrane potential per mitochondria (ratio Orange vs. Deep-Red) [5]: significantly decreased | apoptotic rate (TUNEL-positive cells) [6]: 34.3% | cytochrome c levels in the cytosolic fraction [7]: significant increases | cytochrome c mitochondrial levels [7]: concomitant decreases | cytochrome c levels in the cytosolic fraction [8]: significant increases | cytochrome c mitochondrial levels [8]: concomitant decreases | apoptotic rate (TUNEL-positive cells) [9]: 53.2% | cells in the G1 phase [10]: remarkable increase | cells in the S phase [10]: considerable decrease | expression level of activated caspase-8 [11]: unaffected | proteolytic cleavage of pro-caspase-9 into its active form [11]: time-dependently activated | effect on the cell cycle [12]: did not evidence any noticeable effect | mitochondrial mass (MitoTracker Deep-Red) [13]: decrease | mitochondrial membrane potential (MitoTracker Orange) [13]: decrease | mitochondrial membrane potential per mitochondria (ratio Orange vs. Deep-Red) [13]: significantly decreased | ROS increase in the presence of NAC ([14]; 30 µM OI + NAC): no longer evident | ROS generation ([14]; 30 µM, vs control): significantly stimulated | increase of the percentage of cells in the G0/G1 phase [15]: 15% | reduction of the fraction of cells in the S-phase [15]: 30% | effect in TUNEL assay [16]: did not evidence any noticeable effect | IC50 [3]: 351 µM | anti-proliferative effect / cytotoxicity on non-tumorigenic MCF-10A cells ([3]; up to 72 h): no significant anti-proliferative effect | expression level of activated caspase-8 [17]: unaffected | proteolytic cleavage of pro-caspase-9 into its active form [17]: time-dependently activated | CDK4 protein expression levels [18]: remained unaffected | cyclin D1 protein content ([18]; time dependent): significantly reduced | phosphorylated Rb protein content ([18]; time dependent): significantly reduced
